Read-outs that look alike come from different tables or passages of the source.
Assays:
Puccinia triticina = assay: Wheat Brown Rust fungicidal activity (PUCCRT); type: in vivo; settings: Puccinia triticina; for pest or weed control at 100 ppm: rate 100 ppm; for pest or weed control at 121.5 g/ha: rate 121.5 g/H
Outline: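 Yuma wheat seedlings at first-leaf stage sprayed to run-off (acetone solution in water with 110 ppm Triton X-100) or track-sprayed as EC with 0.1% Trycol 5941; inoculated with P. triticina spores before or after treatment. Overnight dark dew at 22° C., then greenhouse 24° C.; disease severity 0–100% gives percent control vs untreated.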

[1] = tested on: Mycosphaerella graminicola; Anamorph: Septoria tritici; assay: Leaf Blotch of Wheat fungicidal activity (SEPTTR); type: in vivo; settings: Zymoseptoria tritici; for pest or weed control at 100 ppm: rate 100 ppm; for pest or weed control at 121.5 g/ha: rate 121.5 g/H
Outline: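 Acetone solutions diluted with nine volumes of water containing 110 ppm Triton X-100, sprayed to run-off on first-leaf wheat seedlings (Yuma), inoculated with S. tritici before or after treatment. Plants held in dew chambers, then in a 20 °C greenhouse. Disease severity (0–100%) scored when untreated plants fully symptomatic; % control relative to untreated.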

[2] = 24 h, 1 Day Protectant, read-out: Disease control PUCCRT 1DP
[3] = 72 h, 3 Day Curative, read-out: Disease control PUCCRT 3DC
[4] = 24 h, 1 Day Protectant, read-out: Disease control SEPTTR 1DP
[5] = 72 h, 3 Day Curative, read-out: Disease control SEPTTR 3DC

SMILES | melting point [°C] | pest or weed control at 100 ppm (Puccinia triticina; [2]) [%] | pest or weed control at 100 ppm (Puccinia triticina; [3]) [%] | pest or weed control at 100 ppm [1, 4] [%] | pest or weed control at 100 ppm [1, 5] [%] | pest or weed control at 121.5 g/ha (Puccinia triticina; [2]) [%] | pest or weed control at 121.5 g/ha (Puccinia triticina; [3]) [%] | pest or weed control at 121.5 g/ha [1, 4] [%] | pest or weed control at 121.5 g/ha [1, 5] [%]
Cc1ccc(C[C@H]2COC[C@H](N)C(=O)O[C@@H](C)[C@@H]2OCC(C)C)cc1.Cl | 81 to 84 |  |  |  |  |  |  |  | 
COc1ccnc(C(=O)N[C@H]2COC[C@H](CCc3ccccc3)[C@@H](OC3CCCC3)[C@H](C)OC2=O)c1O [Compound F1] | 51 to 58 | 80 to 100 | 80 to 100 | 80 to 100 | 0 to 80 |  |  |  | 
COc1ccnc(C(=O)N[C@H]2COC[C@H](CCc3ccccc3)[C@@H](OCCCC(F)(F)F)[C@H](C)OC2=O)c1O [Compound F2] | 78 to 81 | 80 to 100 | 0 to 80 | 80 to 100 | 80 to 100 |  |  |  | 
CCCCCO[C@@H]1[C@@H](CCc2ccccc2)COC[C@H](NC(=O)c2nccc(OC)c2O)C(=O)O[C@H]1C [Compound F3] | 96 to 98 | 80 to 100 | 80 to 100 | 80 to 100 | 80 to 100 |  |  |  | 
COc1ccnc(C(=O)N[C@H]2COC[C@H](CCc3ccccc3)[C@@H](OCC(C)C)[C@H](C)OC2=O)c1O [Compound F4] | 117 to 120 | 80 to 100 | 80 to 100 | 80 to 100 | 80 to 100 |  |  |  | 
COc1ccnc(C(=O)N[C@H]2COC[C@H](Cc3cccc4ccccc34)[C@@H](OC(=O)C(C)C)[C@H](C)OC2=O)c1O [Compound F5, (3S,6S,7R,8S)-3-(3-hydroxy-4-methoxypicolin-amido)-6-methyl-8-(naphthalen-1-ylmethyl)-4-oxo-1,5-dioxonan-7-yl isobutyrate] | 139 to 142 | 0 to 80 | 0 to 80 | 80 to 100 | 0 to 80 |  |  |  | 
COc1ccnc(C(=O)N[C@H]2COC[C@H](Cc3cccc4ccccc34)[C@@H](OCCCC(F)(F)F)[C@H](C)OC2=O)c1O [Compound F6] | 118 to 122 | 0 to 80 |  | 80 to 100 | 0 to 80 |  |  |  | 
CCCCCO[C@@H]1[C@@H](Cc2cccc3ccccc23)COC[C@H](NC(=O)c2nccc(OC)c2O)C(=O)O[C@H]1C [Compound F7] | 116 to 120 | 80 to 100 | 0 to 80 | 80 to 100 | 0 to 80 |  |  |  | 
COc1ccnc(C(=O)N[C@H]2COC[C@H](Cc3cccc4ccccc34)[C@@H](Oc3ccc(C)cc3)[C@H](C)OC2=O)c1O [Compound F8] | 94 to 98 | 80 to 100 | 0 to 80 | 80 to 100 | 0 to 80 |  |  |  | 
COc1ccnc(C(=O)N[C@H]2COC[C@H](Cc3cccc4ccccc34)[C@@H](OC3CCCC3)[C@H](C)OC2=O)c1O [Compound F9] | 78 to 85 | 80 to 100 |  | 80 to 100 | 80 to 100 |  |  |  | 
COc1ccnc(C(=O)N[C@H]2COC[C@H](Cc3cccc4ccccc34)[C@@H](OCC(C)C)[C@H](C)OC2=O)c1O [Compound F10] | 78 to 80 | 80 to 100 |  | 80 to 100 | 0 to 80 |  |  |  | 
CCCCCO[C@@H]1[C@@H](Cc2ccc(C)cc2)COC[C@H](NC(=O)c2nccc(OC)c2O)C(=O)O[C@H]1C [Compound F11] | 97 to 99 | 80 to 100 | 0 to 80 | 80 to 100 | 80 to 100 |  |  |  | 
COc1ccnc(C(=O)N[C@H]2COC[C@H](Cc3ccc(C)cc3)[C@@H](OC(=O)C(C)C)[C@H](C)OC2=O)c1O [Compound F12] | 67 to 72 | 80 to 100 | 80 to 100 | 80 to 100 | 80 to 100 |  |  |  | 
COc1ccnc(C(=O)N[C@H]2COC[C@H](Cc3ccc(F)cc3)[C@@H](OC(=O)C3CC3)[C@H](C)OC2=O)c1O [Compound F13] | 68 to 73 | 80 to 100 | 80 to 100 | 80 to 100 | 80 to 100 |  |  |  | 
COc1ccnc(C(=O)N[C@H]2COC[C@H](Cc3ccc(F)cc3)[C@@H](OC(=O)C(C)C)[C@H](C)OC2=O)c1O [Compound F14] | 66 to 71 | 80 to 100 | 80 to 100 | 80 to 100 | 80 to 100 |  |  |  | 
COc1ccnc(C(=O)N[C@H]2COC[C@H](Cc3ccc(Cl)cc3Cl)[C@@H](OC(=O)C(C)C)[C@H](C)OC2=O)c1O [Compound F41] | 79 to 82 | 80 to 100 |  | 80 to 100 | 80 to 100 |  |  |  | 
COc1ccnc(C(=O)N[C@H]2COC[C@H](Cc3ccc(Cl)cc3Cl)[C@@H](Oc3ccc(C)cc3)[C@H](C)OC2=O)c1O [Compound F44] | 81 to 85 | 80 to 100 |  |  |  |  |  |  | 
COc1ccnc(C(=O)N[C@H]2COC[C@H](Cc3ccc(Cl)cc3Cl)[C@@H](Oc3ccc(C)cc3)[C@H](C)OC2=O)c1OCOC(C)=O [Compound F113] | 70 to 74 |  |  |  |  | 80 to 100 |  |  | 
CCOCC(=O)OCOc1c(OC)ccnc1C(=O)N[C@H]1COC[C@H](CC2CCCC2)[C@@H](OC(=O)C(C)C)[C@H](C)OC1=O [Compound F121] |  | 80 to 100 | 80 to 100 | 80 to 100 | 80 to 100 | 80 to 100 | 80 to 100 | 80 to 100 | 80 to 100
CC(C)C(=O)O[C@@H]1[C@@H](Cc2cccc3ccccc23)COC[C@H](N(C(=O)OC(C)(C)C)C(=O)OC(C)(C)C)C(=O)O[C@H]1C [Compound F128, [(3S,6S,7R,8S)-3-[bis(tert-butoxycarbonyl)amino]-6-methyl-8-(1-naphthylmethyl)-4-oxo-1,5-dioxonan-7-yl]2-methylpropanoate] | 130 to 132 |  |  |  |  |  |  |  | 
C[C@@H]1OC(=O)[C@@H](N(C(=O)OC(C)(C)C)C(=O)OC(C)(C)C)COC[C@H](Cc2cccc3ccccc23)[C@H]1OC1CCCC1 [Compound F132, tert-butyl N-tert-butoxycarbonyl-N-[(3S,7S,8R,9S)-8-(cyclopentoxy)-9-methyl-7-(1-naphthylmethyl)-2-oxo-1,5-dioxonan-3-yl]carbamate] | 49 to 55 |  |  |  |  |  |  |  | 
CC(C)CO[C@@H]1[C@@H](Cc2cccc3ccccc23)COC[C@H](N(C(=O)OC(C)(C)C)C(=O)OC(C)(C)C)C(=O)O[C@H]1C [Compound F133] | 57 to 63 |  |  |  |  |  |  |  | 
CCCCCO[C@@H]1[C@@H](Cc2ccc(C)cc2)COC[C@H](N(C(=O)OC(C)(C)C)C(=O)OC(C)(C)C)C(=O)O[C@H]1C [Compound F134] | 100 to 103 |  |  |  |  |  |  |  | 
C[C@@H]1OC(=O)[C@@H](N(C(=O)OC(C)(C)C)C(=O)OC(C)(C)C)COC[C@H](Cc2ccc(F)cc2)[C@H]1OC(=O)C1CC1 [Compound F136] | 131 to 133 |  |  |  |  |  |  |  | 
